Source: US6919374B1, “Viscosity modulating substance and use thereof” (Oklahoma Medical Research Foundation, priority 1999, dated 2005)
“Also recorded” adds a separate entry of the source. Where a SMILES comes first, the peptide text is derived from it.

Key:
[1] = system: whole blood of sickle cell patients; assay: Whole blood viscosity by RBC pipette method before and after administration of APM to sickle cell patients; type: in vivo; details: for blood viscosity after treatment: baseline vs 120 minutes post-treatment, APM 1.5, 3 or 6 mg/kg body weight
Experimental: Blood samples were obtained from ten patients having homozygous HgBss disease or heterozygous Hgbsc disease before and after a blinded administration of APM at 1.5 (low dose), 3 (medium dose), or 6 (high dose) milligrams per kilogram body weight.
Viscosity determinations using the RBC pipette method of Wright and Jenkins (1970, Blood 36:516) were made on each blinded whole blood sample before and 120 minutes after blinded administration of APM. Each measurement was made in triplicate. Control viscosity measurements using saline and water for each patient and normal whole blood were also made to validate the viscosity measurements.
(§1) To measure viscosity, 1.01 cc of the test fluid, i.e., either water, saline or blood, was drawn into an RBC pipette using a 50 cc syringe attached via rubber tubing to the top of the RBC pipette. Using a constant pressure of 20 mm by maintaining the pressure with visual feedback and hand pressure, the amount of time it took for the test fluid to drip out of the RBC pipette was measured with a stopwatch. Each measurement was made in triplicate. Changes in viscosity from baseline for patient blood samples were recorded and compared to normal controls.

[2] = system: red blood cells containing HbS; details: WO 00/18418; cited from earlier work
[3] = system: patient blood samples; assay: Whole blood viscosity after in vitro addition of APM to patient blood samples; type: cell-based; details: HgBss patients; samples 480 minutes post-treatment; 1 or 2 milligrams/milliliter APM in vitro
Experimental: as §1
(§2) Samples with high viscosity readings at 480 minutes or 1,440 minutes post-treatment, chosen to represent patients with a validated response to APM who were returning to normal, were divided and treated with an additional 0, 1, or 2 milligrams/milliliter APM in vitro, in an effort to measure whether a second inducible sickling response was possible and if a second response to the in vitro APM addition could be observed. The viscosity of each sample at 480 minutes post-treatment was measured.

[4] = system: sickle cells in HgBss blood; assay: Metabisulfite slide test for sickling after APM given orally; type: in vivo, patients
Experimental: For comparative purposes, the number of sickle cells relative to the number of normal cells was obtained at 0, 30, 60, 120, 240, 480, and 1440 minutes after administration of APM according to the method given in Example 2.
Blood was drawn before and 120 minutes after treatment with 0, 1.5, 3, or 6 milligrams APM per kilogram body weight in a blinded fashion from the ten patients into heparin tubes, stored in a refrigerator at approximately 10° C. and routinely tested within 36 hours of collection.
Normal blood devoid of abnormal hemoglobin was used as a control. For each heparinized patient blood sample and the normal blood control, experimental samples were prepared containing 0.25 milliliters of normal saline and 0.25 milliliters of blood. […]
To account for natural or non-induced sickling of the experimental samples, a baseline sickling count was obtained for each heparinized patient blood sample and the normal blood control. […] Photomicrographs were taken with a phase contrast microscope at 400 magnification, and the results were obtained from the photomicrographs as the number of sickle cells per 100 cells counted. This number of sickle cells per 100 cells counted was considered the baseline sickling count and was subtracted from the cell counts obtained with the metabisulfite induced samples. […]

[5] = with the exception of patients suffering from phenylketonuria; cited from earlier work
[6] = system: sickle cells in HgBss blood; assay: Sickling after in vitro addition of APM to patient blood; type: cell-based, patients
Experimental: as §2
Using metabisulfite to reduce HbS to the deoxy form (Daland, G. A. and Castle, W. B. 1948. J Lab Clin Med 33:1082-1088; Nelson, D. A. In Todd-Sanford-Davidsohn Clinical Diagnosis by Laboratory Methods, J. B. Henry, ed. (W.B. Saunders Co., Philadelphia, 1979, vol. 1, p. 1020), a baseline sickling test was run on each experimental sample. The sickling inducing agent was prepared fresh daily as follows: 10 milligrams metabisulfite in 1 milliliter isotonic saline. Multiple test slides were prepared for each experimental sample by adding approximately 300 microliters of the metabisulfite inducing agent to 50 microliters of well mixed blood and placing about 4 drops of the experimental sample onto the surface of a glass slide, placing a coverslip over the sample, and sealing the coverslip with a petroleum jelly bead to prevent oxygen from entering the sample. […]

[7] = clinical trial; osteo- and mixed osteo- and rheumatoid arthritis; cited from earlier work

COC(=O)[C@H](Cc1ccccc1)NC(=O)[C@@H](N)CC(=O)O [APM, N-L-alpha-aspartyl-L-phenylalanine 1-methyl ester] (H-Asp-Phe-OMe)
blood viscosity after treatment ([1]; HgBss patients): decreased; also recorded: reduces the viscosity
whole blood viscosity ([1]; in vivo): lowers whole blood viscosity
viscosity compared against Pirofsky's change in viscosity vs. hematocrit standard ([1]; patients with sickle cell disease (HgBss)): decreased
viscosity compared against Pirofsky's change in viscosity vs. hematocrit standard ([1]; patients with sickle cell trait (Hbgsc)): increased
blood viscosity after treatment ([1]; sbthal patients): decreased
capacity of red blood cells containing HbS to sickle with hypoxemia [2]: reduction
viscosity of blood samples after in vitro APM addition, compared to the control [3]: decreased; also recorded: reduces
number of sickle cells [4]: reduces the number of sickle cells
safety status [5]: generally regarded as safe
number of sickle cells [6]: reduces the number of sickle cells
pain and inflammation of arthritis [7]: alleviate the pain and inflammation
